Tests used:
Flame Seedless grapes = assay: Field table grape coloration; type: in vivo; conditions: for Number of colored clusters per 4 vines: foliar, 200 gallons/acre
Method: ABA formulation performance was evaluated in the field using table grape coloration to assess efficacy. Treatments consisted of untreated control, ethephon control (industry standard ethylene-releasing agent), ABA technical (95% ABA solubilized in ethanol), ABA liquid formulation, and ABA water-soluble granule formulation. All treatments had 0.05% v/v Latron B-1956 surfactant included. The three ABA treatments (200 ppm ABA; 200 gallons/acre) and the ethephon control (250 ppm at 200 gallons/acre) were foliar applied with a backpack sprayer at 10 to 20% color development (June 27) on Flame Seedless grapes commercially grown in Arvin, Calif. The numbers of color clusters per 4 vines were assessed at 8 and 11 days after treatment.

Coleus plants = assay: Greenhouse Coleus wilting (drought tolerance, shelf life); type: in vivo
Method: ABA formulation performance was evaluated in the greenhouse using Coleus wilting to assess efficacy. Treatments consisted of control, ABA technical (95% ABA solubilized in ethanol), ABA liquid formulation, and ABA water-soluble granule formulation. Coleus plants were grown in four-inch diameter pots to the 6 to 8 leaf stage (n=4 plants/treatment). Water (15 mL/plant) was drench-applied to the control plants, and ABA (15 mL/plant; 250 ppm ABA) was drench applied to ABA treated plants. The plants were held in a greenhouse without irrigation until all plants wilted to a point when they were determined to be unmarketable. The plants were rated daily for the extent of wilting on a scale from 1 (no wilting) to 4 (complete wilting). A rating of 2.5 was the point at which a plant was determined to be unmarketable and the previous day was recorded as the marketable life of that plant in days.

Structure (SMILES) | Number of colored clusters per 4 vines (Flame Seedless grapes; 8 days after treatment) | Number of colored clusters per 4 vines (Flame Seedless grapes; 11 days after treatment) | Number of colored clusters, comparison (Flame Seedless grapes; in vivo) | Days of shelf life after treatment (Coleus plants; drench 15 mL/plant, 250 ppm ABA, no irrigation) [days] | Coleus wilting / shelf life, comparison (Coleus plants; in vivo)
CC1=CC(=O)CC(C)(C)[C@@]1(O)/C=C/C(C)=C\C(=O)O [ABA technical, S-(+)-abscisic acid] | 9.0 | 11.2 | increased the number of colored clusters more than the ethephon control | 12 | delayed wilting and increased shelf life of Coleus plants
O=P(O)(O)CCCl [Ethephon control, ethephon, reference compound] | 6.0 | 6.7 | – | – | –

Reference: US8454982B2, “Stable S-(+)-abscisic acid liquid and soluble granule formulations” (Valent BioSciences Corporation, priority 2007, dated 2013)
